This is an account of results in patent US11208412B2 (DAEGU-GYEONGBUK MEDICAL INNOVATION FOUNDATION, priority 2017, dated 2021).

Common to all, as to test: Kinase selectivity, DiscoverX scanMAX Kinase assay panel (% control)
Format in all cases: binding

Test [1] has as its target T1, kinases of the scanMAX Kinase assay panel (Homo sapiens, UniProt Q8IYT8).
T1 construct: purchased DiscoverX Co. (contract measurement) scanMAX Kinase assay panel
T1 sequence (Q8IYT8 1-1036): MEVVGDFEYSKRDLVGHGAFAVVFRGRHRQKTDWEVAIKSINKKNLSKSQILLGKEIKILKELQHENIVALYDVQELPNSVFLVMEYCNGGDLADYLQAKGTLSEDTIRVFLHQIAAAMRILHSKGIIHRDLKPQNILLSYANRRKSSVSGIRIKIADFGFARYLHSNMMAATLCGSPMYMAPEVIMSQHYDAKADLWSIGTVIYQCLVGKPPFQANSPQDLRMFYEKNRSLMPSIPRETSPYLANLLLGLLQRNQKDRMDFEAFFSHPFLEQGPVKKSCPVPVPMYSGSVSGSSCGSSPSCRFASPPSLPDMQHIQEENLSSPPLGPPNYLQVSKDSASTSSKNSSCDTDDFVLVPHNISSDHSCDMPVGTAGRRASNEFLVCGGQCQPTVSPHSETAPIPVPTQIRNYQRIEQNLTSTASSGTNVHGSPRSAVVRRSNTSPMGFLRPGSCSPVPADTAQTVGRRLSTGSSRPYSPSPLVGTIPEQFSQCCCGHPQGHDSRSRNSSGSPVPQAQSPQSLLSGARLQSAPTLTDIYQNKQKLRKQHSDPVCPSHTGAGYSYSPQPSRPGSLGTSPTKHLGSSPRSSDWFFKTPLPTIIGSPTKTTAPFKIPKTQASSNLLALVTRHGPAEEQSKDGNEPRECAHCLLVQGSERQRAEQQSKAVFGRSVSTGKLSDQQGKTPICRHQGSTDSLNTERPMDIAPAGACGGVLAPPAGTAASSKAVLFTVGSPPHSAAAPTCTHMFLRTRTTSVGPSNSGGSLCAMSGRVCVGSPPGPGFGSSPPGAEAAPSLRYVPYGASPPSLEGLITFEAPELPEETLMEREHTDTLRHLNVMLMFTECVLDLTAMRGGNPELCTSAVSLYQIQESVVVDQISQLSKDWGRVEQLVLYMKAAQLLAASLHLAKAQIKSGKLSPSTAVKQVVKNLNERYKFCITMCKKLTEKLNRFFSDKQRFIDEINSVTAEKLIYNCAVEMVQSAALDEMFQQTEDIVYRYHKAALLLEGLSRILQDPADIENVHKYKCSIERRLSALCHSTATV
The note with it: kinase ULK2; 1 uM in DMSO. As for the experimental part: (§1) The following experiment was performed to evaluate the activity of the compounds of the present invention to inhibit many enzymes.
(§2) Particularly, the compounds of Examples 8, 64 and 104 were selected among all of those compounds of the invention. DiscoverX Co. was asked to measure the enzyme (kinase) selectivity, and the experiment was performed using scanMAX™ Kinase assay panel.
(§3) Wherein, the concentration of the drug treated to each enzyme was 1 uM in DMSO and the control percentage (% control) was determined by the following Equation 1. (example compound−positive control)/(negative control−positive control)×100 [Equation 1]
(§4) Herein, the positive control indicates the compound showing the % control of 0%, and the negative control indicates DMSO showing the % control of 100%. The enzyme selectivity in the present invention is defined as follows: When the % control for each enzyme is less than 35% (<35%), it is judged that the compound has the activity to the corresponding enzyme.

Test [2] has as its target T2, kinases of the scanMAX Kinase assay panel (Homo sapiens, UniProt P51451).
T2 construct: purchased DiscoverX Co. (contract measurement) scanMAX Kinase assay panel
The note with it: BLK; 1 uM. The method, then:
as §1, §2, §3, §4

Test [3] concerns the target T3, kinases of the scanMAX Kinase assay panel (Homo sapiens, UniProt P00519, M351T).
T3 construct: purchased DiscoverX Co. (contract measurement) scanMAX Kinase assay panel
Conditions: ABL1(M351T)-phosphorylated; 1 uM. As for the experimental part: as §1, §2, §3, §4

Test [4] addresses T4, kinases of the scanMAX Kinase assay panel (Homo sapiens, UniProt P09769).
T4 construct: purchased DiscoverX Co. (contract measurement) scanMAX Kinase assay panel
Conditions: FGR; 1 uM. The method, then:
as §1, §2, §3, §4

In test [5] the target is T5, kinases of the scanMAX Kinase assay panel (Homo sapiens, UniProt P19784).
T5 construct: purchased DiscoverX Co. (contract measurement) scanMAX Kinase assay panel
The note with it: CSNK2A2; 1 uM. As for the experimental part: as §1, §2, §3, §4

In test [6] the target is T6, kinases of the scanMAX Kinase assay panel (Homo sapiens, UniProt P54756).
T6 construct: purchased DiscoverX Co. (contract measurement) scanMAX Kinase assay panel
Conditions: EPHA5; 1 uM. The method, then:
as §1, §2, §3, §4

Test [7] has as its target T7, kinases of the scanMAX Kinase assay panel (Homo sapiens, UniProt P42336, E542K).
T7 construct: purchased DiscoverX Co. (contract measurement) scanMAX Kinase assay panel
The note with it: PIK3CA(E542K); 1 uM. As for the experimental part:
as §1, §2, §3, §4

For test [8], the target named is T8, kinases of the scanMAX Kinase assay panel (Homo sapiens, UniProt O75116).
T8 construct: purchased DiscoverX Co. (contract measurement) scanMAX Kinase assay panel
The note with it: kinase ROCK2; 1 uM in DMSO. As for the experimental part: as §1, §2, §3, §4

In test [9] the target is T9, kinases of the scanMAX Kinase assay panel (Homo sapiens, UniProt P51956).
T9 construct: purchased DiscoverX Co. (contract measurement) scanMAX Kinase assay panel
T9 sequence (P51956 1-506): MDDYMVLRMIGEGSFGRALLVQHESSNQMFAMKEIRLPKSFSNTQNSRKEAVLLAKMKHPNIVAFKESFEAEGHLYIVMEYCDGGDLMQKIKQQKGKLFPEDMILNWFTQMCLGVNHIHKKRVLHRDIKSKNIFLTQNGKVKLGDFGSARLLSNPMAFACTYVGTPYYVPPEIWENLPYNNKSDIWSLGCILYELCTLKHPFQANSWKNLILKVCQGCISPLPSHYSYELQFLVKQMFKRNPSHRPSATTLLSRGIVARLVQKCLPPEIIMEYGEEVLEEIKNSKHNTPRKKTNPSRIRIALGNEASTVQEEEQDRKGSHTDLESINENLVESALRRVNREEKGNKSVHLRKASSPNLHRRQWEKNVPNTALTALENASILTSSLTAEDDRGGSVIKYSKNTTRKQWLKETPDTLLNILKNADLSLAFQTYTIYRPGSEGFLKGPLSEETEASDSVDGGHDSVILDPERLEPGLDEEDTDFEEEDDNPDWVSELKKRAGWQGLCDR
Conditions: NEK3; 1 uM. As for the experimental part: as §1, §2, §3, §4

Test [10] has as its target T10, kinases of the scanMAX Kinase assay panel (Homo sapiens, UniProt P31152).
T10 construct: purchased DiscoverX Co. (contract measurement) scanMAX Kinase assay panel
Conditions: ERK4; 1 uM. The method, then:
as §1, §2, §3, §4

The target in test [11] is T11, kinases of the scanMAX Kinase assay panel (Homo sapiens, UniProt P48730).
T11 construct: purchased DiscoverX Co. (contract measurement) scanMAX Kinase assay panel
Conditions: CSNK1D; 1 uM. The method, then:
as §1, §2, §3, §4

T2 sequence (P51451 whole entry): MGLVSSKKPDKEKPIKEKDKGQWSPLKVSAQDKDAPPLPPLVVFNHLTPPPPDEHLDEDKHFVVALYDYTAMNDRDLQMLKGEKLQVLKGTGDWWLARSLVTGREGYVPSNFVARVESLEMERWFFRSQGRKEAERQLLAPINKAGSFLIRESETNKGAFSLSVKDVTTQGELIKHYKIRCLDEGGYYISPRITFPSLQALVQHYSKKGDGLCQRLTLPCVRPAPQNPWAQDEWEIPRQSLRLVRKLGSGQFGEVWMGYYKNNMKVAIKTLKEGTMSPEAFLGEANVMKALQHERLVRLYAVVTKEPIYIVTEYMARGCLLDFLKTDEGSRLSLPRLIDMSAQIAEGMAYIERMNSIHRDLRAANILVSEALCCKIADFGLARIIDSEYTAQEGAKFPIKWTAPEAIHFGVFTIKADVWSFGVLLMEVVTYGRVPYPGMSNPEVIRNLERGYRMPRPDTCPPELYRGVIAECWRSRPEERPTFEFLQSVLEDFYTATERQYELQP
T7 sequence (P42336 whole entry E542K): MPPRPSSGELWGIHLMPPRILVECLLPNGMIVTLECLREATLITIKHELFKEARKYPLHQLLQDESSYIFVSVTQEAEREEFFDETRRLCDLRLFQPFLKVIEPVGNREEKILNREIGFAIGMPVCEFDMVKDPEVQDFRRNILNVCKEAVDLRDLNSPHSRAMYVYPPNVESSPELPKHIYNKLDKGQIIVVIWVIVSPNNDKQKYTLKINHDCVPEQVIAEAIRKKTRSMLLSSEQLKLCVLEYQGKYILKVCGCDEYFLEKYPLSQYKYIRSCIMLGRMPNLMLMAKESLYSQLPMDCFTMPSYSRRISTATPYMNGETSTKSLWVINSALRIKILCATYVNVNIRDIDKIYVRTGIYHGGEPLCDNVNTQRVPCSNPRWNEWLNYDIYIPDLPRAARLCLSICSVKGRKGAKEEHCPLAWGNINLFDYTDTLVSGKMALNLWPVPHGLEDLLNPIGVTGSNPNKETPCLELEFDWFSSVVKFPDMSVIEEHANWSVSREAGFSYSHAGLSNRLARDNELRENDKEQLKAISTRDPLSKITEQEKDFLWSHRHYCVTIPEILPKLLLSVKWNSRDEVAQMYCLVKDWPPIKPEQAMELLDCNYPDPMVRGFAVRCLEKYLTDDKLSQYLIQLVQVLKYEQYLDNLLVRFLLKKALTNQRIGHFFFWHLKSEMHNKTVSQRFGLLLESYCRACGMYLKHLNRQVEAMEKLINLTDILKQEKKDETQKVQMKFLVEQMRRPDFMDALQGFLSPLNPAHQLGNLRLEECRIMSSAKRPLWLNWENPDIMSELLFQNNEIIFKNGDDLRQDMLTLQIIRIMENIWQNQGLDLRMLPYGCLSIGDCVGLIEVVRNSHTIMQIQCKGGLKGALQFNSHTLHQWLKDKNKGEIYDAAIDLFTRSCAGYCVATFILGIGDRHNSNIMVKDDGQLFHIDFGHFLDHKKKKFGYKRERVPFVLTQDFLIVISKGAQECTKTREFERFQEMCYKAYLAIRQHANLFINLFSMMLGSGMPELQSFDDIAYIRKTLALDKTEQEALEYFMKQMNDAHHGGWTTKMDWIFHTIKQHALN
T5 sequence (P19784 whole entry): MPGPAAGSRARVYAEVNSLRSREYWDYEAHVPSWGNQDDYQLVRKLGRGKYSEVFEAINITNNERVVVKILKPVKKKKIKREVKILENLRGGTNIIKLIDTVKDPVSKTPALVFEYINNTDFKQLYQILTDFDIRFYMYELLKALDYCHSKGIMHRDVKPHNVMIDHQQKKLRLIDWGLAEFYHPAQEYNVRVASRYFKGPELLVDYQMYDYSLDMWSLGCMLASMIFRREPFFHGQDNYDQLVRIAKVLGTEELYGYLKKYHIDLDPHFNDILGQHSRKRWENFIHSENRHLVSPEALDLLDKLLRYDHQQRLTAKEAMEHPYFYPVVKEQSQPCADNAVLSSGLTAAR
T11 sequence (P48730 whole entry): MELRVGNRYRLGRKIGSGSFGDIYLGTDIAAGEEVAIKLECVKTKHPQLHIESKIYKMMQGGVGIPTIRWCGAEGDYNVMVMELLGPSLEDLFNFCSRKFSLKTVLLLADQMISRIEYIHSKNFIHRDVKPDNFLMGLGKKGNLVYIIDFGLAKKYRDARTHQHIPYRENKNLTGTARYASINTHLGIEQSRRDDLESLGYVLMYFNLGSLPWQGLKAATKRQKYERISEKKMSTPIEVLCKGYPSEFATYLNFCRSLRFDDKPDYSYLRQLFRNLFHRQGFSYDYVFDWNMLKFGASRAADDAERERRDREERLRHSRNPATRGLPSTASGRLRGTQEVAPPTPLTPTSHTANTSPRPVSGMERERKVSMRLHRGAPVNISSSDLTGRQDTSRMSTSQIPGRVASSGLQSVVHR
T6 sequence (P54756 25-1037): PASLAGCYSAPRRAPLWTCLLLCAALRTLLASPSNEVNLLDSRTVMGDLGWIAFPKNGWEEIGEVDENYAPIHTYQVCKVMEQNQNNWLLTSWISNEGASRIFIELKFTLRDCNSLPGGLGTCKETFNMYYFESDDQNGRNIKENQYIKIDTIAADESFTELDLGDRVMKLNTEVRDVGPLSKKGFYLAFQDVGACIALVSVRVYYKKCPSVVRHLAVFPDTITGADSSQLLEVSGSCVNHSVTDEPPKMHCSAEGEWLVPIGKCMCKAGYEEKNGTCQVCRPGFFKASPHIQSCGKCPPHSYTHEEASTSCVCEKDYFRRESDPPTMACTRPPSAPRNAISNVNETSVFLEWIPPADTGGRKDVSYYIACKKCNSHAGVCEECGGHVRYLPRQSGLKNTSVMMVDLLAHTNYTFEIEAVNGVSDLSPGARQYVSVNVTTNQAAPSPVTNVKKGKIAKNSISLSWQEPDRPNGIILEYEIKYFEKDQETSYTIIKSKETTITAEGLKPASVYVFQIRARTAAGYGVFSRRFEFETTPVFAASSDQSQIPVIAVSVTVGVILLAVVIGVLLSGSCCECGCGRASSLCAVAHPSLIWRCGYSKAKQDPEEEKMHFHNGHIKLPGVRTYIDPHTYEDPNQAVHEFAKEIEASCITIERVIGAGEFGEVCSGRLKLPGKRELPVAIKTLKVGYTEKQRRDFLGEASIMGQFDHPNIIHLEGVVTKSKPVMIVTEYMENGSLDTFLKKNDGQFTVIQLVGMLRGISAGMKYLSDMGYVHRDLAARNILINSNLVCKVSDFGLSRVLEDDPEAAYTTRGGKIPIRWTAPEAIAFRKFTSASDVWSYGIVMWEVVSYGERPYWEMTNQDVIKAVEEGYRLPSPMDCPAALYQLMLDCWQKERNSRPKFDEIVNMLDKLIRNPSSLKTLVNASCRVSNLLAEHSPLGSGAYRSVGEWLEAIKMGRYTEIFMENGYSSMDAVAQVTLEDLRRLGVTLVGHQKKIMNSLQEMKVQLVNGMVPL
T10 sequence (P31152 whole entry): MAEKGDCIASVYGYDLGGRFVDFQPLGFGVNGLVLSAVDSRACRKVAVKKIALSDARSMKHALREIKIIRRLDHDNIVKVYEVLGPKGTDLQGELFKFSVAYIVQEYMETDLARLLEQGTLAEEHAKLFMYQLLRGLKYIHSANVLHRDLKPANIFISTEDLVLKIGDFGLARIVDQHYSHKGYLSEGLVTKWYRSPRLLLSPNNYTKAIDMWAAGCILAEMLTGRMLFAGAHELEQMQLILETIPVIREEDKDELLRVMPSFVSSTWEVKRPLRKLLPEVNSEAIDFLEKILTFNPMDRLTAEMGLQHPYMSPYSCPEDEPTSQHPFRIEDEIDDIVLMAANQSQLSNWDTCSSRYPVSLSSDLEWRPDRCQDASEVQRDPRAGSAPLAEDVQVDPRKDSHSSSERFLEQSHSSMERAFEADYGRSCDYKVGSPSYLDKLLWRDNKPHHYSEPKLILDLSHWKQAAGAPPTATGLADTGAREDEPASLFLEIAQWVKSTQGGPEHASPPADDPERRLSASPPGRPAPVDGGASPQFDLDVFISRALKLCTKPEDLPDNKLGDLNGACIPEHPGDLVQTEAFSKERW
T4 sequence (P09769 whole entry): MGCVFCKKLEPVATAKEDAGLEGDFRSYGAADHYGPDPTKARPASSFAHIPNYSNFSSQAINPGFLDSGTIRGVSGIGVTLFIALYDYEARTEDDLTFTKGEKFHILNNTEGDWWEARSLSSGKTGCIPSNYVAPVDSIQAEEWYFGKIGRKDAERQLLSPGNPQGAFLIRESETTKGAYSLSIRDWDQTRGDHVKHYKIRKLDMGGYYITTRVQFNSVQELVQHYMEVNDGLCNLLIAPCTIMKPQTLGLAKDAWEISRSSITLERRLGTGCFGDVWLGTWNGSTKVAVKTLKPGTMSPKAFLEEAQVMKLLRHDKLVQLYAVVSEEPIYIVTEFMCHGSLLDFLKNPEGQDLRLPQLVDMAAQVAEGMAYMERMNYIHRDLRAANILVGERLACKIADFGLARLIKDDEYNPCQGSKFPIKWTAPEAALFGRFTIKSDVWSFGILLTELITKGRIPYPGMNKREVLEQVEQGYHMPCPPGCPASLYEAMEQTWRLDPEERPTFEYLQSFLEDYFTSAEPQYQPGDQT

Turning to `CC1(Nc2nc(Nc3cnn([C@H]4CCN(C5COC5)C[C@@H]4F)c3Cl)nc3[nH]cc(C#N)c23)CC1` [Example 52, 2-((5-chloro-1-((3S,4S)-3-fluoro-1-(oxetane-3-yl)piperidine-4-yl)-1H-pyrazole-4-yl)amino)((1-methylcyclopropyl)amino)-7H-pyrrolo[2,3-d]pyrimidine-5-carbonitrile], the remaining binding at 1 µM in test [1] was 15%; in test [2] it was 2.2%; in [3], 2.6%; in test [4], 10%; in test [5], 11%; in test [6] it was 79%. Moreover, the remaining binding at 1 µM in [7] turned out to be 77%; in test [8], 23%; in test [9], 96%; in [10], 100%; in test [11], 1%.
Consider `CCNc1nc(Nc2ccc(C(=O)N3CCC(N4CCOCC4)CC3)cc2OC)nc2[nH]cc(C(F)(F)F)c12` [Example 104, (4-((4-(ethylamino)-5-(trifluoromethyl)-7H-pyrrolo[2,3-d]pyrimidine-2-yl)amino)-3-methoxyphenyl)(4-morpholinopiperidine-1-yl)methanone], for which the remaining binding at 1 µM in test [1] was 100%; in [2], 100%; in test [3], 100%; in test [4], 100%; in test [5], 95%; in test [6], 100%. Further, the remaining binding at 1 µM amounted to 83% in [7]; 100% in test [8]; 82% in [9]; 92% in test [10]; 2.6% in [11].
As for `CNc1nc(Nc2ccc(C(=O)N3CCOCC3)cc2OC)nc2[nH]cc(C#N)c12` [Example 1, 2-((2-methoxy-4-(morpholine-4-carbonyl)phenyl)amino)-4-(methylamino)-7H-pyrrolo[2,3-d]pyrimidine-5-carbonitrile], the remaining binding at 1 µM was determined as 75% in test [1]; 100% in [2]; 62% in test [3]; 94% in [4]; 76% in [5]; 87% in test [6]. Besides, the remaining binding at 1 µM in [7] amounted to 74%; in [8], 56%; in [9], 70%; in [10], 95%; in test [11], 5%.
